For assay [1], the target named is T1, DXP synthase (Escherichia coli, UniProt P77488).
T1 construct: made in house
T1 sequence (P77488 1-620): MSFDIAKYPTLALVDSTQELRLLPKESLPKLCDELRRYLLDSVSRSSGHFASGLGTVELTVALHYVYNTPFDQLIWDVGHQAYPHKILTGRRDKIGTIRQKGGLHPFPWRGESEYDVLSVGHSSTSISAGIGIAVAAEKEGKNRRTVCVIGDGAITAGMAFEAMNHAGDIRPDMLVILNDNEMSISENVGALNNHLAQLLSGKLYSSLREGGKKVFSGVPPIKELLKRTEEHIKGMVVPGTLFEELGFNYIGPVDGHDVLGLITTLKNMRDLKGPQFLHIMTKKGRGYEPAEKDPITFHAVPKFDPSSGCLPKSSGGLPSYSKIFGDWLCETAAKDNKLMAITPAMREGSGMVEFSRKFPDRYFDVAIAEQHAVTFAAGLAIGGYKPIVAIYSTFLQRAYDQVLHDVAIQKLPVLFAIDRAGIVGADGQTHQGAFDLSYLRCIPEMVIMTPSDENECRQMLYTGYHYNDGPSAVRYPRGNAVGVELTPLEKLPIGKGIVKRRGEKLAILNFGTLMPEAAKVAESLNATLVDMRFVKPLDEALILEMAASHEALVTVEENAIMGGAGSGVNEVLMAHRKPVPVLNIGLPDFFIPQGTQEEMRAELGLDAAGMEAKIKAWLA
In words: Aromatic aldehydes as DXP synthase acceptor substrates. In kind it is biochemical. The text has this: Some ThDP-dependent enzymes are known to catalyze C—C bond formation using aromatic substrates with varying turnover efficiencies; ^[20] [21] […] As a starting point, we tested several aromatic aldehydes as acceptor substrates.

A further assay relates to E. coli K-12 (BW25113). The experiment in a line: Antimicrobial activity against E. coli K-12 grown in M9 minimal medium. The class given is cell-based. The following applies: Escherichia coli, BW25113. The text has this:
The product of DXP synthase, DXP, lies at a metabolic branchpoint. DXP serves as precursor not only for essential isoprenoids, but also is essential to central metabolism as a precursor to both thiamin diphosphate and pyridoxal phosphate. Thus, evaluation of antimicrobial activity of DXP synthase inhibitors in the standard, rich growth medium (CAMHB) which contains rescuing metabolites, likely underestimates the antimicrobial activities of these agents. Standard in vitro culture conditions may have poor predictive value for these agents in vivo; access to most nutrients is thought to be more difficult from the host than in nutrient rich media.

Assay [2] deals with T2, Porcine pyruvate dehydrogenase (PDH E1 subunit) (Sus scrofa, UniProt P29804).
T2 construct: Ki^PDH; μM); Ki^PDH
T2 sequence (P29804 1-390): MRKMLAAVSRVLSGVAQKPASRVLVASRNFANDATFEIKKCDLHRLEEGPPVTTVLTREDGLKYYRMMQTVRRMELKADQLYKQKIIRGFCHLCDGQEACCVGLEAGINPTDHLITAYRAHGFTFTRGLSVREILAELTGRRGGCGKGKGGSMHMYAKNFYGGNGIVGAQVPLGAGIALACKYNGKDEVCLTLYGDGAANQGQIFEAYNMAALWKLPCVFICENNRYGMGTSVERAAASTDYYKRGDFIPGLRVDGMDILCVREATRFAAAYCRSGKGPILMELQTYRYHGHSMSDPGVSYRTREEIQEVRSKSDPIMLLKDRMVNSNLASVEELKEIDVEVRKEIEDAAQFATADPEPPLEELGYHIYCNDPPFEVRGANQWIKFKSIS
In words: Inhibition of PDH by acetylphosphonates. In kind it is biochemical. The following applies: Table 5 (no unit in table; μM). The protocol:
FIG. 6A, FIG. 6B, and FIG. 6C are charts showing Competitive inhibition of procine PDH E1 subunit by PentAP (FIG. 6A), HexAP (FIG. 6B) and OctAP (FIG. 6C). Inhibition assays were performed as previously described^[18]. Pyruvate concentration was varied from 12.5-250 μM and acetylphosphonate concentration was varied: 0 μM (∘), 250 μM (PentAP) or 200 μM (HexAP and OctAP) (●), 500 μM (□) and 1000 μM (▪). Experiments were performed in triplicate, and data were subjected to non-linear regression analysis for Ki determinations (GraphPad Prism). Representative Lineweaver-Burk plots (GraFit from Erithacus Software) are shown for PentAP (FIG. 6A), HexAP (FIG. 6B) and OctAP (FIG. […]) to illustrate the competitive inhibition mode with respect to pyruvate.
Pyruvate dehydrogenase activity was measured spectrophotometrically as previously reported ^[38] by monitoring absorbance changes at 340 nm due to reduction of NAD^+ by PDH. Reaction mixtures contained 100 mM HEPES (pH 8.0), 1 mg/mL BSA, 0.2 mM ThDP, 0.1 mM coenzyme A, 1 mM MgCl2, 2 mM cysteine, 0.3 mM tris(2-carboxyethyl)phosphine (TCEP). The reaction was initiated with enzyme (0.01 units/ml) and activity was monitored at 30° C. For inhibition studies, reaction mixtures (described above) including BnAP (0.5, 1, 2.25 mM) were pre-incubated at 30° C. for 5 minutes. Initial rates were measured immediately after reactions were initiated by addition of PDH (0.01 units/ml). Double reciprocal analysis of data was carried out using GraFit version 7 from Erithacus Software.

The next assay addresses T3, E. coli DXP synthase (Escherichia coli, UniProt P77488).
T3 construct: made in house
In words: biochemical. The note with it: competitive with respect to pyruvate. On the procedure: FIG. 4A, FIG. 4B, and FIG. 4C are charts showing competitive inhibition of DXP synthase by pentylacetylphosphonate (PentAP; FIG. 4A), hexylacetylphosphonate (HexAP; FIG. 4B), and octylacetyl phosphonate (OctAP; FIG. 4C). Inhibition assays were performed as previously described^[18], [40]). […] Pyruvate concentration was varied from 12-240 μM and acetylphosphonate concentration was varied: 0 μM (∘), 10 μM (●), 25 μM (□) and 50 μM (▪). Experiments were performed in triplicate, and data were subjected to non-linear regression analysis for Ki determinations (GraphPad Prism). Representative Lineweaver-Burk plots (GraFit from Erithacus Software) are shown for PentAP (FIG. 4A), HexAP (FIG. 4B) and OctAP (FIG. 4C) to illustrate the competitive inhibition mode with respect to pyruvate.
Inhibition of DXP synthase was measured as previously described^[13], [18]. […] Acetylphosphonate concentration was varied from 0 to 250 μM. […] Experiments were performed in triplicate for BAP and in duplicate for iPrAP
In order to evaluate the inhibitory activity of BnAP against DXP synthase, a continuous spectrophotometric coupled assay was used to measure formation of DXP by monitoring IspC consumption of NADPH (340 nm). ^[2] DXP synthase reaction mixtures (previously described) including BnAP (15, 30, and 60 μM), IspC (1 μM) and NADPH (100 μM) were pre-incubated at 37° C. for 5 minutes. Initial rates were measured after the reaction was initiated by the addition of DXP synthase. Inhibition of the coupling enzyme (IspC) by BnAP was not observed up to 1.5 mM. Experiments were performed in triplicate. Double reciprocal analysis of data was carried out using GraFit version 7 from Erithacus Software.

For assay [3], the system named is wild-type K-12 E. coli (ATCC: MG1655). The experiment in a line: Antimicrobial activity against E. coli K-12 grown in CAMHB. The class given is cell-based. The protocol: FIG. 7A and FIG. 7B are charts showing representative growth curves are shown for BAP (FIG. 7A) and BnAP (FIG. 7B). Alkylacetylphosphonates exert dose-dependent delay in E. coli K-12 (MG 1655) growth in CAMHB. Fractional growth (measured at 16 h, blue arrow) was determined relative to the no drug control. Standardized cell cultures were exposed to increasing concentrations of acetylphosphonate, and growth was determined by measuring the OD600 for a period of 16 hours. Acetylphosphonate concentration was varied from 0-5 mM: No drug (light blue), 0.08 mM (orange), 0.16 mM (gray), 0.31 mM (yellow), 0.63 mM (blue), 1.25 mM (green), 2.5 mM (dark blue) and 5.0 mM (brown).
Thus, BnAP, PentAP, HexAP and OctAP, also shown to inhibit DXP synthase, were evaluated for antimicrobial activity against wild-type K-12 E. coli (ATCC: MG1655) grown in rich medium (CAMHB).

The next assay relates to porcine PDH E1 subunit. In kind it is biochemical. On the procedure:
Reaction mixtures containing 100 mM HEPES, pH 8.0, 2 mM MgCl2, 5 mM NaCl, 1 mM ThDP, 1 mg/mL BSA, 10-20 mM pyruvate, 10% DMSO v/v, and 10-300 μM nitroso substrate were pre-incubated at 37° C. for 5 min. Enzymatic reactions were initiated by addition of 0.5-2 μM DXP synthase (or 0.1 units/ml PDH) and monitored spectrophotometrically by measuring the rate of disappearance of the nitroso substrate at its corresponding λmax. Substrate concentration as a function of time was determined from absorbance values using Beer's Law. Initial reaction rates were determined from the linear range of the reaction progress curve, usually within 1-3 min. Data analysis to determine kcat and Km for each alternative substrate was carried out using GraFit version 7 from Erithacus Software.

In assay [4] the target is T1, DXP synthase. In words: Inhibition of DXP formation by nitroso substrates (HPLC-based assay). The note with it: 30 μM D-GAP, 80 μM pyruvate, 37° C.; average ± SEM. The class given is biochemical, E. coli. On the procedure:
Enzyme reactions were initiated by addition of 0.1 μM DXP synthase. Aliquots (150 μL) of the enzymatic mixture were removed between 0.5 and 3 minutes and quenched into ice-cold methanol (150 μL). Precipitated protein was removed by centrifugation, and the supernatant was diluted in an equal volume of water. The nitroso substrate was removed by extraction into acetonitrile (3×), using a previously described freeze-extraction technique. ^[32] […] The derivatization mixtures were analyzed by HPLC as previously described. ^[19] To determine initial reaction rates in the presence of varying inhibitor concentration, the D,L-GAP and DXP hydrazone HPLC peak areas were measured, and the product concentration was determined as a percent of total peak area and plotted against reaction time. Initial rates GraFit version 7 from Erithacus Software was utilized to generate IC50 curves.

Assay [5] concerns the target T4, E. coli DXP synthase (DXPS) (Escherichia coli, UniProt P77488).
T4 construct: made in house
T4 sequence (P77488 1-620): T1 sequence (P77488 1-620)
The class given is biochemical. The following applies: 10-20 mM pyruvate, pH 8.0, 10% DMSO, 37° C., average ± SEM. The protocol:
Reaction mixtures containing 100 mM HEPES, pH 8.0, 2 mM MgCl2, 5 mM NaCl, 1 mM ThDP, 1 mg/mL BSA, 10-20 mM pyruvate, 10% DMSO, 0.5 mM 5 mM nitroso substrate were pre-incubated at 37° C. for 5 min. […] Aliquots of enzymatic mixture were removed at various time intervals and quenched into an equal volume of cold methanol. Quenched mixtures were incubated on ice for 20 minutes. Precipitated proteins were removed by centrifugation, and the supernatant was analyzed by HPLC with UV detection using the following conditions: Flow rate=3 mL/min; Solvent A: 100 mM NH4OAc, pH 4.6; Solvent B: acetonitrile; Method: 0-100% B over 10 min. New products formed were extracted from the supernatant using ethyl acetate (3×). […] Products were subsequently characterized by mass spectrometry.
Reaction mixtures containing 100 mM HEPES, pH 8.0, 2 mM MgCl2, 5 mM NaCl, 1 mM ThDP, 1 mg/mL BSA, 10-20 mM pyruvate, 10% DMSO v/v, and 10-300 μM nitroso substrate were pre-incubated at 37° C. for 5 min. […] Substrate concentration as a function of time was determined from absorbance values using Beer's Law. Initial reaction rates were determined from the linear range of the reaction progress curve, usually within 1-3 min. Data analysis to determine kcat and Km for each alternative substrate was carried out using GraFit version 7 from Erithacus Software.

[6] abbreviates: aromatic aldehyde acceptor substrate.

The values that follow come from patent publication US9930893B2, “Inhibitors of DXP synthase and methods of use thereof” (The Johns Hopkins University, priority 2014, dated 2018).

Converted amounts (≈) assume the structure as drawn. “And” between values parts separate entries of the source, which are not always exact repeats. Identical values can stand only once. Like-named read-outs stand apart in the source and are kept apart here.

As for `O=Cc1c(O)cc([N+](=O)[O-])cc1[N+](=O)[O-]` [2-Hydroxy-4,6-dinitrobenzaldehyde], the “Km higher than the natural substrate, D-GAP” value on DXP synthase [1] was ~18 fold. In addition, at DXP synthase [1] (setting [6]), the Michaelis constant (Km) (in general, the substrate concentration at which the rate is half of its maximum) was found to be 512 µM; the kcat – broadly, the number of substrate molecules converted per active site and unit of time at saturation – stood at 0.00583 ± 0.00083 s⁻¹.
Turning to `CCCCCCCCOP(=O)(O)C(C)=O` [OctAP, Octylacetylphosphonate], the MIC – broadly, the lowest concentration that inhibits growth of the organism – in the assay with E. coli K-12 (BW25113) (M9 minimal medium, preliminary, read-out: MIC) is 1250 µM (≈ 295 µg/mL). In addition, the figures for the Ki (in assay [2] (read-out: Ki^PDH); on E. coli DXP synthase (read-out: Ki (DXP synthase))) were 154 ± 14 µM and 6 ± 0.2 µM, respectively. Moreover, in assay [3] (FIG. 10, in words), the “antimicrobial effects against E. coli (MG1655)” value was “inactive”. In assay [3] (rich medium (CAMHB)), the “inactive up to” value is > 5 mM and > 1210 ug/mL.
Regarding `CCCCCOP(=O)(O)C(C)=O` [PentAP, Pentylacetylphosphonate], the minimal inhibitory concentration (MIC) against E. coli K-12 (BW25113) is 12500 µM (≈ 2430 µg/mL). The Ki (commonly a measure of affinity in units of concentration, obtained from inhibition or displacement) amounted to 250 ± 31 µM in assay [2] (Ki^PDH) and 9.9 ± 0.4 µM on E. coli DXP synthase (Ki (DXP synthase)). In assay [3] (Escherichia coli, MG1655, 16 h, read-out: minimum inhibitory concentration (MIC90)), the MIC90 was 1250 µM (≈ 243 µg/mL).
Take benzyl acetylphosphonate [Compound 1]: the Km was determined as 350 ± 30 µM with porcine PDH E1 subunit (10-20 mM pyruvate, pH 8.0, 37° C., average ± SEM) and 133 ± 18 µM in assay [5] (acceptor substrate). For the same compound, the “Km^PDH/Km^DXPS” value in the assay with porcine PDH E1 subunit (ratio porcine PDH E1 vs E. coli DXPS) stood at 2.7. The IC50 (as a rule, the concentration that gives 50% inhibition) at DXP synthase [4] worked out at 208 ± 20 µM. For the same compound, the kcat in assay [5] (acceptor substrate turnover) is 2.92 ± 0.317 s⁻¹.
